Measurements taken from patent US9220795B2, “Indole derivatives” (priority 2011, dated 2015).

Legend:
Wistar rat heart PBR = target: T1, Wistar rat heart PBR (Rattus norvegicus, UniProt P16257); assay: In vitro potency assay: competition for binding to PBR against 0.3 nM [3H]PK-11195; settings: non-radioactive analogues; vs 0.3 nM [3H]PK-11195; 15 minutes at 25° C.; 6 concentrations
T1 construct: from tissue; host or cells: Wistar rat heart
Procedure: Affinity for PBR was screened using a method adapted from Le Fur et al (Life Sci. 1983; USA 33: 449-57). Non-radioactive analogues of in vivo imaging agents of the invention were tested along with a non-radioactive analogue of a previous tetracyclic indole imaging agent (from co-pending patent application PCT/EP2009/062827; synthesis described in Example 17 below):
Each test compound (dissolved in 50 mM Tris-HCl, pH 7.4, 10 mM MgCl2 containing 1% DMSO) competed for binding to Wistar rat heart PBR against 0.3 nM [^3H] PK-11195. The reaction was carried out in 50 mM Tris-HCl, pH 7.4 10 mM MgCl2 for 15 minutes at 25° C.

[1] = In vivo biodistribution method; parameters: species or system Adult male Wistar rats; settings: for Brain 2 min (% ID/g): 2 min after injection via lateral tail vein, 1-3 MBq, n=3; for % Activity in Brain = Parent @ 60 min: 60 min after injection; for OB 30 min (% ID/g): olfactory bulb, 30 min after injection; for OB: Str 30 min: ratio olfactory bulb to striatum at 30 min; for Str 2: 30 min: ratio striatum 2 min to 30 min
Procedure: Imaging agents of the invention were tested in an in vivo biodistribution model along with a previous tetracyclic imaging agent (from co-pending patent application PCT/EP2009/062827; synthesis described in Example 18 below).

Compound | Ki (Wistar rat heart PBR) | Brain 2 min (% ID/g) [1] | % Activity in Brain = Parent @ 60 min [1] | OB 30 min (% ID/g) [1] | OB: Str 30 min [1] | Str 2: 30 min [1]
CCN(CC)C(=O)C1Sc2ccccc2-c2c1c1cc(OC)ccc1n2CCF (racemic) [tetracyclic indole, (+−)-11-(2-[^18F]fluoroethyl)-8-methoxy-6,11-dihydro-5-thia-11-aza-benzo[a]fluorene-6-carboxylic acid diethyl amide, reference compound] | 0.369 nM |  |  |  |  | 
CCN(CC)C(=O)C1Sc2ccccc2-c2c1c1cc(OC)ccc1n2CC[18F] (racemic) [tetracyclic indole, (+−)-11-(2-[^18F]fluoroethyl)-8-methoxy-6,11-dihydro-5-thia-11-aza-benzo[a]fluorene-6-carboxylic acid diethyl amide, reference compound] |  | 0.32 % ID/g | 96.00% | 0.31 % ID/g | 2.07 | 1.73
CCN(CC)C(=O)C1CCCc2c1c1c(OC)cccc1n2CCF (stereo not drawn) [Imaging agent 5, 9-(2-[^18F]-Fluoro-ethyl)-5-methoxy-2,3,4,9-tetrahydro-1H-carbazole-4-carboxylic acid diethylamide] | 2.35 nM |  |  |  |  | 
O=C(C1CCCc2c1c1ccccc1n2CCF)N1CCCCC1 (stereo not drawn) [Imaging agent 6, [9-(2-[^18F]-Fluoro-ethyl)-2,3,4,9-tetrahydro-1H-carbazol-4-yl]-piperidin-1-yl-methanone] | 18.3 nM |  |  |  |  | 
CN(Cc1ccccc1)C(=O)C1CCCc2c1c1ccccc1n2CCF (stereo not drawn) [Imaging agent 7, 9-(2-[^18F]fluoro-ethyl)-2,3,4,9-tetrahydro-1H-carbazole-4-carboxylic acid benzyl-methyl-amide] | 1.25 nM |  |  |  |  | 
CN(Cc1ccccc1)C(=O)C1CCCc2c1c1ccccc1n2CC[18F] (stereo not drawn) [Imaging agent 7, 9-(2-[^18F]fluoro-ethyl)-2,3,4,9-tetrahydro-1H-carbazole-4-carboxylic acid benzyl-methyl-amide] |  | 0.55 % ID/g | 81.28% | 0.34 % ID/g | 3.40 | 4.70
CCN(CC)C(=O)C1CCCc2c1c1cc(F)ccc1n2CCF (stereo not drawn) [Imaging agent 9, 6-Fluoro-9-(2-[^18F]fluoro-ethyl)-2,3,4,9-tetrahydro-1H-carbazole-4-carboxylic acid diethylamide] | 3.79 nM |  |  |  |  | 
CCN(CC)C(=O)C1CCCc2c1c1cc(F)ccc1n2CC[18F] (stereo not drawn) [Imaging agent 9, 6-Fluoro-9-(2-[^18F]fluoro-ethyl)-2,3,4,9-tetrahydro-1H-carbazole-4-carboxylic acid diethylamide] |  | 0.56 % ID/g | 84.30% | 0.41 % ID/g |  | 
CCN(CC)C(=O)C1CCCc2c1c1c(F)cccc1n2CC[18F] (stereo not drawn) [Imaging agent 10, 5-Fluoro-9-(2-[^18F]fluoro-ethyl)-2,3,4,9-tetrahydro-1H-carbazole-4-carboxylic acid diethylamide] |  | 0.50 % ID/g | 92.70% | 0.51 % ID/g |  | 
CCN(CC)C(=O)C1CC(C)Cc2c1c1ccccc1n2CCF (stereo not drawn) [Imaging agent 11, 9-(2-[^18F]-Fluoro-ethyl)-2-methyl-2,3,4,9-tetrahydro-1H-carbazole-4-carboxylic acid diethylamide] | 2.12 nM |  |  |  |  | 
CCN(CC)C(=O)C1CC(C)Cc2c1c1ccccc1n2CC[18F] (stereo not drawn) [Imaging agent 11, 9-(2-[^18F]-Fluoro-ethyl)-2-methyl-2,3,4,9-tetrahydro-1H-carbazole-4-carboxylic acid diethylamide] |  | 0.51 % ID/g | 90.37% | 0.42 % ID/g | 3.50 | 3.33
